Substitutions are numbered along the chain they refer to. Several values for one entry are separate records, joined by “and”; a condition that tells them apart may be missing. Identical values can stand only once. Entries after “also recorded” stand apart in the source; their conditions may differ. Where a SMILES comes first, the peptide text is derived from it. The star is where a group is joined. Benzoyl(4-OMe) = COc1ccc(C(=O)*)cc1

One assay concerns the target T1, APC WT (Homo sapiens, UniProt P25054).
T1 sequence (P25054 303-739): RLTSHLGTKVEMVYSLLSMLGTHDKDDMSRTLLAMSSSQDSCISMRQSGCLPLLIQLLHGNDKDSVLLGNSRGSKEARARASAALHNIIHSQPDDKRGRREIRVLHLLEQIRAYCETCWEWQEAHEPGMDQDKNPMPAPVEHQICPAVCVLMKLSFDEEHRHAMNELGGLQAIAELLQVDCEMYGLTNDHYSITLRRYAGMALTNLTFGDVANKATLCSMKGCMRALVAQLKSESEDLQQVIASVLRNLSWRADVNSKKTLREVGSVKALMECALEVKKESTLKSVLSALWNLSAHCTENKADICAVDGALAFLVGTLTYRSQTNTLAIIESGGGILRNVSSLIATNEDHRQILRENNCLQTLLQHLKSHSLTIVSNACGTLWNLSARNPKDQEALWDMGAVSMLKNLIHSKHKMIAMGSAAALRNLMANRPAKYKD
Put plainly: ITC assay, APC WT. In kind it is binding. The note with it: 30 °C. As to the method: (§1) ITC experiments were performed using a MicroCal ITC200 calorimeter (Malvern Panalytical Ltd.). APC protein and peptide inhibitors were diluted with buffer containing 50 mM HEPES pH 7.5, 300 mM NaCl and 1 mM EDTA. The cells were loaded with APC proteins at 10–20 μM. All injections were performed using an initial injection of 0.2 μL followed by 19 injections of 2 μL at 100–200 μM. All measurements were carried out at 30 °C. The data were analyzed using a single-site binding model within MicroCal ITC200 analysis software to generate the stoichiometry (N), enthalpy changes (ΔH), entropy changes (ΔS), and the association constant (K) of binding. The changes in free energy (ΔG) were calculated (ΔG = ΔH-TΔS).

Another assay addresses T2, APC W593A, N641A (Homo sapiens, UniProt P25054, N641A/W593A).
T2 sequence (P25054 303-739 W593A/N641A): T1 sequence (P25054 303-739) with W291A, N339A
Description: ITC assay, APC W593A, N641A double mutant. In kind it is binding. How it is done:
as §1
On the technique in general: ITC needs no label: the signal is the heat of the interaction.

The target in assay [1] is T3, APC–Asef PPI (FLAG-tagged APC (303–876), HA-tagged Asef (170–632)) (Homo sapiens, UniProt P25054).
T3 construct: FLAG-tagged APC (303–876) and hemagglutinin (HA)-tagged Asef (170–632) plasmids; expressed in transfected cells; host or cells: HEK293T (lysate treated with compound)
T3 sequence (P25054 303-876): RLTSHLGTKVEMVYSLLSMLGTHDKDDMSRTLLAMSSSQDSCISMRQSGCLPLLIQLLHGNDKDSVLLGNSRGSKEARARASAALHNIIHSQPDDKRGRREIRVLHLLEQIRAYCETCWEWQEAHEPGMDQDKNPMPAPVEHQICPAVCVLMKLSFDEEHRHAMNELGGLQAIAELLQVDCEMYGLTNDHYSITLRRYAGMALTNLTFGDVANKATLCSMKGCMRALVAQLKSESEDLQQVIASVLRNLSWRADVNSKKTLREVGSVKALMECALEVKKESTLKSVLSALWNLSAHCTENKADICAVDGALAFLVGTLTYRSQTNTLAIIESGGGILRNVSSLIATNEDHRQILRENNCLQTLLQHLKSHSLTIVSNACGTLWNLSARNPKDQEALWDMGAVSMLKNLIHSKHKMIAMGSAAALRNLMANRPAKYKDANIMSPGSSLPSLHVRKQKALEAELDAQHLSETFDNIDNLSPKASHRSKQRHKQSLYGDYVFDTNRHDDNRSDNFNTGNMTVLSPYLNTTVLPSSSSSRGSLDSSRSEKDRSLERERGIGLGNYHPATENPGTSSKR
Description: Exogenous Co-IP of APC–Asef in drug-treated HEK293T cell lysate. To be noted: HEK293T cell lysate, 0.2, 1 and 5 μM, 2 h. The assay is classed as biochemical. As to the method: To investigate the effect of MAI-516 on the APC–Asef PPI, we first examined whether MAI-516 could perturb the APC–Asef PPI in cell lysates. HEK293T cells were transiently transfected with FLAG-tagged APC (303–876) and hemagglutinin (HA)-tagged Asef (170–632) plasmids. The cell lysates were harvested several hours after transfection and treated with different concentrations of MAI-203 and MAI-516 for 2 h; then, they were incubated with anti-FLAG® M2 affinity gel (Sigma; A2220) for 3 h at 4 °C.

The test system of another assay is SW480 cells. Put plainly: Wound-healing migration assay, SW480. In kind it is cell-based. As to the method: Cells were seeded in 12-well plates at a density of 4 × 10^5 cells per well and grown until 90% confluence in DMEM supplemented with 10% FBS. The monolayers were scratched with a sterile pipette tip (QSP; T104TLS-Q). The cells were washed with 1× PBS and then cultured in culture medium containing 1% FBS and peptides or peptidomimetics. The corresponding photos were captured at the time of scratching and after 24–72 h.

For assay [2], the target named is T4, APC–Asef PPI (HA–APC (303–876), FLAG–Asef (170–632)) (Homo sapiens, UniProt P25054).
T4 sequence (P25054 303-876): T3 sequence (P25054 303-876)
Description: Exogenous Co-IP of APC–Asef in drug-treated HEK293T cells. To be noted: 24 h, TAT + linker and MAI-516 50 μM, MAIT-516 25 and 50 μM.
Description: For direct western blot analysis, cells were harvested in NP-40 lysis buffer (1% NP-40, 50 mM Tris-HCl at pH 7.5, 150 mM NaCl, 1 mM PMSF, 25 mM NaF, 1 mM Na3VO4) supplemented with cOmplete™ Protease Inhibitor Cocktail (Roche). […] Forty-eight hours after transfection, the cells were washed twice with cold PBS and lysed in NP-40 lysis buffer for 1 h on ice. […] The next day, the samples were centrifuged (7,000 × g for 30 s at 4 °C), and the supernatant was discarded. The beads were washed four times with NP-40 lysis buffer, and the bound proteins were eluted in SDS sample buffer for immunoblotting analysis and detected with anti-FLAG (Sigma; F1804, 1:1,000), anti-HA antibody (Sigma; H9658, 1:20,000) and goat anti-mouse IgG secondary antibody (Signalway antibody; L3032, 1:50,000). […] Twenty-four hours after transfection, peptides and peptidomimetics were added to the culture medium for 24 h. […] For endogenous immunoprecipitation, SW480, DLD1, and RKO cells were seeded in 10-cm cell culture dishes.

Consider `COc1ccc(C(=O)N[C@@H](C)C(=O)NCC(=O)N[C@@H](CCC(=O)O)C(=O)N[C@@H](CO)C(=O)N[C@@H](CC(C)C)C(=O)N[C@@H](Cc2ccc(O)cc2)C(=O)N[C@@H](CCC(=O)O)C(N)=O)cc1` [MAI-516] ({Benzoyl(4-OMe)}-AGESLYE-NH2), for which, at APC WT, the “-TΔS” value was 4.85 kcal/mol, the “L/P ratio (number of sites per APC)” value came to 0.97, the ΔG is -11.6 kcal/mol and the ΔH is -16.4 kcal/mol. The Kd on APC WT (ITC) was 4.4 nM. Further, the “reduction of binding affinity vs APC WT” value at APC W593A, N641A is 200 fold. On APC W593A, N641A (30 °C), the “-TΔS” value came to 4.9 kcal/mol, the L/P ratio came to 0.77, the ΔG is -8.44 kcal/mol and the ΔH is -13.3 kcal/mol. The molecule also had a Kd at APC W593A, N641A (ITC, 30 °C) of 860 nM. Also, the “effect on APC–Asef PPI (Co-IP)” value in assay [1] is “dose-dependently attenuate the APC–Asef PPI”. Also, in the assay with SW480 cells (FigS10c, relative to DMSO), the “Relative migration ability (single replicates)” value is 0.86 and 1.12 and 0.84; the “Relative migration ability, mean” value was 0.94. In the assay on SW480 cells (SW480, MAI-516 50 μM), the “cell migration (wound healing)” value is listed as “dose not inhibit the migration; also recorded: no apparent impact”. Besides, the “effect on APC–Asef PPI (Co-IP)” value in assay [2] is recorded as “no effect”.

In general, Kd refers to the equilibrium constant for the complex coming apart. Low readings indicate a tighter complex, high ones a looser complex.

The values are drawn from article PMC9402538, “Rational design of a sensitivity-enhanced tracer for discovering efficient APC–Asef inhibitors” (Nature Communications, 2022).
